Measurements taken from publication PMC5218480 (PLoS ONE, 2017).

Test system: MV-4-11 cells
Test: Gene expression microarray analysis (Affymetrix PrimeView) and GSEA
Type: cell-based, human
Parameters: RFU PODN (11730768_x_at) / Fold change /veh PODN (11730768_x_at) / RFU LINC00158 (11744669_a_at) / Fold change /veh LINC00158 (11744669_a_at) / RFU DUSP10 (11751237_a_at) / Fold change /veh DUSP10 (11751237_a_at) / RFU ID3 (11757404_x_at) / Fold change /veh ID3 (11757404_x_at) / RFU PLEKHG5 (11737974_s_at) / Fold change /veh PLEKHG5 (11737974_s_at) / RFU LRRC4B (11730491_at) / Fold change /veh LRRC4B (11730491_at) / RFU GIMAP4 (11747438_a_at) / Fold change /veh GIMAP4 (11747438_a_at) / RFU KRT8 (11758183_x_at) / Fold change /veh KRT8 (11758183_x_at) / RFU CNN1 (11734310_a_at) / Fold change /veh CNN1 (11734310_a_at) / RFU VPS37D (11726825_at) / Fold change /veh VPS37D (11726825_at) / RFU C10orf10 (11716522_x_at) / Fold change /veh C10orf10 (11716522_x_at) / RFU KIR2DL2 /// KIR2DL4 /// KIR2DL5A /// KIR2DL5B /// KIR2DS1 /// KIR2DS2 /// KIR2DS3 /// KIR2DS4 /// KIR3DL3 /// KIR3DL3 /// KIR3DS1 (11738374_at) / Fold change /veh KIR2DL2 /// KIR2DL4 /// KIR2DL5A /// KIR2DL5B /// KIR2DS1 /// KIR2DS2 /// KIR2DS3 /// KIR2DS4 /// KIR3DL3 /// KIR3DL3 /// KIR3DS1 (11738374_at) / RFU C1QL1 (11718748_at) / Fold change /veh C1QL1 (11718748_at) / RFU TMPRSS4 (11747572_a_at) / Fold change /veh TMPRSS4 (11747572_a_at) / RFU HAMP (11756126_x_at) / Fold change /veh HAMP (11756126_x_at) / RFU RNFT2 (11725882_a_at) / Fold change /veh RNFT2 (11725882_a_at) / RFU NR4A2 (11747474_a_at) / Fold change /veh NR4A2 (11747474_a_at) / RFU ABCC12 (11746883_a_at) / Fold change /veh ABCC12 (11746883_a_at) / RFU TMEM136 (11760407_x_at) / Fold change /veh TMEM136 (11760407_x_at) / RFU CLDN22 /// WWC2 (11732394_at) / Fold change /veh CLDN22 /// WWC2 (11732394_at) / RFU HLA-DPB1 (11760878_x_at) / Fold change /veh HLA-DPB1 (11760878_x_at) / RFU SPINT1 (11716480_a_at) / Fold change /veh SPINT1 (11716480_a_at) / RFU GAP43 (11754022_s_at) / Fold change /veh GAP43 (11754022_s_at) / RFU A4GNT (11735810_at) / Fold change /veh A4GNT (11735810_at) / RFU PRB3 (11715151_x_at) / Fold change /veh PRB3 (11715151_x_at) / RFU TUBB4B (11761932_at) / Fold change /veh TUBB4B (11761932_at) / RFU CAPN14 (11732068_a_at) / Fold change /veh CAPN14 (11732068_a_at) / RFU TMCC2 (11721928_a_at) / Fold change /veh TMCC2 (11721928_a_at) / RFU IRGQ (11745062_a_at) / Fold change /veh IRGQ (11745062_a_at) / RFU FAM174B (11720279_a_at) / Fold change /veh FAM174B (11720279_a_at) / RFU TMPRSS4 (11748680_a_at) / Fold change /veh TMPRSS4 (11748680_a_at) / RFU FAM212B (11763350_a_at) / Fold change /veh FAM212B (11763350_a_at) / RFU PLEKHG5 (11743358_a_at) / Fold change /veh PLEKHG5 (11743358_a_at) / RFU ZSCAN30 (11745921_a_at) / Fold change /veh ZSCAN30 (11745921_a_at) / RFU CMKLR1 (11741424_a_at) / Fold change /veh CMKLR1 (11741424_a_at) / RFU LOC101060620 /// MAPK8IP1 (11723275_at) / Fold change /veh LOC101060620 /// MAPK8IP1 (11723275_at) / RFU SPTSSB (11747773_x_at) / Fold change /veh SPTSSB (11747773_x_at) / RFU PRSS12 (11739890_at) / Fold change /veh PRSS12 (11739890_at) / RFU BIN1 (11741810_x_at) / Fold change /veh BIN1 (11741810_x_at) / RFU WNT11 (11732464_a_at) / Fold change /veh WNT11 (11732464_a_at) / RFU C10orf10 (11716521_a_at) / Fold change /veh C10orf10 (11716521_a_at) / RFU C5orf56 (11738089_at) / Fold change /veh C5orf56 (11738089_at) / RFU CYB561 (11721691_x_at) / Fold change /veh CYB561 (11721691_x_at) / RFU ANKRD19P (11752326_a_at) / Fold change /veh ANKRD19P (11752326_a_at) / RFU OR2T12 /// OR2T33 /// OR2T8 (11738714_s_at) / Fold change /veh OR2T12 /// OR2T33 /// OR2T8 (11738714_s_at) / RFU VCAN (11748164_a_at) / Fold change /veh VCAN (11748164_a_at) / RFU JSRP1 (11732532_at) / Fold change /veh JSRP1 (11732532_at) / RFU KRTAP10-11 (11738290_x_at) / Fold change /veh KRTAP10-11 (11738290_x_at) / RFU MYO3A (11730013_a_at) / Fold change /veh MYO3A (11730013_a_at) / RFU EBF3 (11725865_a_at) / Fold change /veh EBF3 (11725865_a_at) / RFU CAMK2N1 (11719241_x_at) / Fold change /veh CAMK2N1 (11719241_x_at) / RFU C5orf56 (11738088_a_at) / Fold change /veh C5orf56 (11738088_a_at) / RFU OLFML3 (11715873_a_at) / Fold change /veh OLFML3 (11715873_a_at) / RFU LOC100653217 /// NTM (11731650_a_at) / Fold change /veh LOC100653217 /// NTM (11731650_a_at) / RFU MAPK11 (11762145_a_at) / Fold change /veh MAPK11 (11762145_a_at) / RFU FIZ1 (11724087_x_at) / Fold change /veh FIZ1 (11724087_x_at) / RFU OASL (11726364_x_at) / Fold change /veh OASL (11726364_x_at) / RFU SOX15 (11748057_x_at) / Fold change /veh SOX15 (11748057_x_at) / RFU CD79A (11719716_a_at) / Fold change /veh CD79A (11719716_a_at) / RFU HIST1H1D (11736915_at) / Fold change /veh HIST1H1D (11736915_at) / RFU CASKIN2 (11723855_a_at) / Fold change /veh CASKIN2 (11723855_a_at) / RFU LOC730098 (11760151_x_at) / Fold change /veh LOC730098 (11760151_x_at) / RFU OR4N2 (11742367_at) / Fold change /veh OR4N2 (11742367_at) / RFU PRRT2 (11749266_a_at) / Fold change /veh PRRT2 (11749266_a_at) / RFU SNX32 (11753110_a_at) / Fold change /veh SNX32 (11753110_a_at) / RFU CDHR5 (11726645_a_at) / Fold change /veh CDHR5 (11726645_a_at) / RFU RCAN1 (11760418_a_at) / Fold change /veh RCAN1 (11760418_a_at) / RFU FAM167A (11723789_a_at) / Fold change /veh FAM167A (11723789_a_at) / RFU FAM26E (11764081_at) / Fold change /veh FAM26E (11764081_at) / RFU ISYNA1 (11749810_s_at) / Fold change /veh ISYNA1 (11749810_s_at) / RFU ACY1 (11761880_at) / Fold change /veh ACY1 (11761880_at) / RFU 11764098_at / Fold change /veh 11764098_at / RFU SAMD14 (11745864_x_at) / Fold change /veh SAMD14 (11745864_x_at) / RFU NPB (11741838_a_at) / Fold change /veh NPB (11741838_a_at) / RFU TMPRSS6 (11731388_a_at) / Fold change /veh TMPRSS6 (11731388_a_at) / RFU KRTAP10-2 (11738614_at) / Fold change /veh KRTAP10-2 (11738614_at) / RFU ARHGAP8 /// PRR5-ARHGAP8 (11727945_x_at) / Fold change /veh ARHGAP8 /// PRR5-ARHGAP8 (11727945_x_at) / RFU KRTAP5-7 /// NADSYN1 (11734609_at) / Fold change /veh KRTAP5-7 /// NADSYN1 (11734609_at) / RFU RASL12 (11751679_a_at) / Fold change /veh RASL12 (11751679_a_at) / RFU CDKN2B (11736163_a_at) / Fold change /veh CDKN2B (11736163_a_at) / RFU PRF1 (11729649_at) / Fold change /veh PRF1 (11729649_at) / RFU, ZNF638 /// ZNF638-IT1 / Fold change vs veh, ZNF638 /// ZNF638-IT1 / RFU, PANK3 / Fold change vs veh, PANK3 / RFU, SH3YL1 / Fold change vs veh, SH3YL1 / RFU, ZEB2 / Fold change vs veh, ZEB2 / RFU, NRIP1 / Fold change vs veh, NRIP1 / RFU, PTTG1IP / Fold change vs veh, PTTG1IP / RFU, CAPN2 / Fold change vs veh, CAPN2 / RFU, MED14 / Fold change vs veh, MED14 / RFU, SNORA58 / Fold change vs veh, SNORA58 / RFU, C1orf63 / Fold change vs veh, C1orf63 / RFU, LRRFIP1 / Fold change vs veh, LRRFIP1 / RFU, NDUFAF7 / Fold change vs veh, NDUFAF7 / RFU, SLC12A2 / Fold change vs veh, SLC12A2 / RFU, IBTK / Fold change vs veh, IBTK / RFU, ESF1 / Fold change vs veh, ESF1 / Fold change vs veh, TMEM50B / RFU, TAOK1 / Fold change vs veh, TAOK1 / RFU, ACBD3 / Fold change vs veh, ACBD3 / RFU, TMA16 / Fold change vs veh, TMA16 / RFU, RWDD3 / Fold change vs veh, RWDD3 / RFU, BCAT1 / Fold change vs veh, BCAT1 / RFU, EDEM3 / Fold change vs veh, EDEM3 / RFU, TMEM33 / Fold change vs veh, TMEM33 / RFU, WDR75 / Fold change vs veh, WDR75 / RFU, AHCTF1 / Fold change vs veh, AHCTF1 / RFU, TFRC / Fold change vs veh, TFRC / RFU, ZDHHC17 / Fold change vs veh, ZDHHC17 / RFU, NOM1 / Fold change vs veh, NOM1 / RFU, ARL8B / Fold change vs veh, ARL8B / RFU, ZBTB11 / Fold change vs veh, ZBTB11 / RFU, TAMM41 / Fold change vs veh, TAMM41 / RFU, KIAA1704 /// LOC100996395 / Fold change vs veh, KIAA1704 /// LOC100996395 / RFU, ING1 / Fold change vs veh, ING1 / RFU, TRMT61B / Fold change vs veh, TRMT61B / RFU, FUBP3 / Fold change vs veh, FUBP3 / RFU, TP53 / Fold change vs veh, TP53 / RFU, TNKS2 / Fold change vs veh, TNKS2 / RFU, ZFP14 / Fold change vs veh, ZFP14 / RFU, ACTR2 / Fold change vs veh, ACTR2 / RFU, PPP3R1 / Fold change vs veh, PPP3R1 / RFU, PIK3R1 / Fold change vs veh, PIK3R1 / RFU, HNRNPA1 / Fold change vs veh, HNRNPA1 / RFU, RNF170 / Fold change vs veh, RNF170 / RFU, ZNF28 / Fold change vs veh, ZNF28 / RFU, RNGTT / Fold change vs veh, RNGTT / RFU, OGT / Fold change vs veh, OGT / RFU, BRD1 / Fold change vs veh, BRD1 / RFU, MARS / Fold change vs veh, MARS / RFU, ZNF655 / Fold change vs veh, ZNF655 / RFU, FAHD1 / Fold change vs veh, FAHD1 / RFU, BDP1 / Fold change vs veh, BDP1 / RFU, LRRCC1 / Fold change vs veh, LRRCC1 / RFU, ARID1A / Fold change vs veh, ARID1A / RFU, ZNF146 / Fold change vs veh, ZNF146 / RFU, ZNF330 / Fold change vs veh, ZNF330 / RFU, GPN3 / Fold change vs veh, GPN3 / RFU, C9orf123 / Fold change vs veh, C9orf123 / RFU, N4BP2L2 / Fold change vs veh, N4BP2L2 / RFU, ARFIP1 / Fold change vs veh, ARFIP1 / RFU, FAM179B / Fold change vs veh, FAM179B / RFU, BCL10 / Fold change vs veh, BCL10 / RFU, UHRF1BP1L / Fold change vs veh, UHRF1BP1L / RFU, BET1 / Fold change vs veh, BET1 / RFU, CNOT2 / Fold change vs veh, CNOT2 / RFU, ZNF268 / Fold change vs veh, ZNF268 / Fold change vs veh, ZNF507 / RFU, DGCR2 / Fold change vs veh, DGCR2 / RFU, WDSUB1 / Fold change vs veh, WDSUB1 / Fold change vs veh, HSP90B1 /// MIR3652 / RFU, ADSS / Fold change vs veh, ADSS / RFU, GK / Fold change vs veh, GK / RFU, ZNF148 / Fold change vs veh, ZNF148 / RFU, TAF9 / Fold change vs veh, TAF9 / RFU, SLC1A5 / Fold change vs veh, SLC1A5 / RFU, SLMO2 / Fold change vs veh, SLMO2 / RFU, ABCC4 / Fold change vs veh, ABCC4 / RFU, LOC101060439 /// RAP1B / Fold change vs veh, LOC101060439 /// RAP1B / RFU, RFX7 / Fold change vs veh, RFX7 / RFU, GTPBP10 / Fold change vs veh, GTPBP10 / RFU, CNEP1R1 / Fold change vs veh, CNEP1R1 / RFU, BIVM-ERCC5 /// ERCC5 / Fold change vs veh, BIVM-ERCC5 /// ERCC5 / RFU, ILF3 / Fold change vs veh, ILF3 / RFU 11762660_at / Fold change /veh 11762660_at / RFU VCAN (11757783_s_at) / Fold change /veh VCAN (11757783_s_at) / RFU DDX43 (11728927_at) / Fold change /veh DDX43 (11728927_at) / RFU KRT8 (11758188_x_at) / Fold change /veh KRT8 (11758188_x_at) / RFU NKD1 (11759106_at) / Fold change /veh NKD1 (11759106_at) / RFU SRD5A1 (11742802_a_at) / Fold change /veh SRD5A1 (11742802_a_at) / RFU TPSAB1 /// TPSB2 (11721975_s_at) / Fold change /veh TPSAB1 /// TPSB2 (11721975_s_at) / RFU GSTM3 (11746129_a_at) / Fold change /veh GSTM3 (11746129_a_at) / RFU IL23R (11737362_x_at) / Fold change /veh IL23R (11737362_x_at) / RFU TMEM51 (11727254_a_at) / Fold change /veh TMEM51 (11727254_a_at) / RFU PIWIL2 (11732686_x_at) / Fold change /veh PIWIL2 (11732686_x_at) / RFU ORM1 (11744905_x_at) / Fold change /veh ORM1 (11744905_x_at) / RFU CCDC152 (11743942_at) / Fold change /veh CCDC152 (11743942_at) / RFU ECM1 (11717891_a_at) / Fold change /veh ECM1 (11717891_a_at) / RFU IL23R (11748794_a_at) / Fold change /veh IL23R (11748794_a_at) / RFU TNFAIP8L3 (11732012_x_at) / Fold change /veh TNFAIP8L3 (11732012_x_at) / RFU MBOAT4 (11741988_at) / Fold change /veh MBOAT4 (11741988_at) / RFU 11764193_at / Fold change /veh 11764193_at / RFU TMEM53 (11763286_at) / Fold change /veh TMEM53 (11763286_at) / RFU MAGEB2 (11727129_at) / Fold change /veh MAGEB2 (11727129_at) / RFU TMEM200A (11744735_a_at) / Fold change /veh TMEM200A (11744735_a_at) / RFU CCDC152 (11751479_a_at) / Fold change /veh CCDC152 (11751479_a_at) / RFU FAM211A (11726209_a_at) / Fold change /veh FAM211A (11726209_a_at) / RFU RGS16 (11746705_a_at) / Fold change /veh RGS16 (11746705_a_at) / RFU VCAN (11755009_s_at) / Fold change /veh VCAN (11755009_s_at) / RFU RHOB (11743442_s_at) / Fold change /veh RHOB (11743442_s_at) / RFU RGS16 (11720943_a_at) / Fold change /veh RGS16 (11720943_a_at) / RFU RGS16 (11720944_at) / Fold change /veh RGS16 (11720944_at) / RFU, VPS4B / Fold change vs veh, VPS4B / RFU, CREB1 / Fold change vs veh, CREB1 / RFU, DNAJC13 / Fold change vs veh, DNAJC13 / RFU, GNAQ / Fold change vs veh, GNAQ / RFU, CDK5R1 / Fold change vs veh, CDK5R1 / RFU, ZRANB3 / Fold change vs veh, ZRANB3 / RFU, CUL4A / Fold change vs veh, CUL4A / RFU, CCNY / Fold change vs veh, CCNY / RFU, UFL1 / Fold change vs veh, UFL1 / RFU, COG3 / Fold change vs veh, COG3 / RFU, DIAPH2 / Fold change vs veh, DIAPH2 / RFU, SKA2 / Fold change vs veh, SKA2 / RFU, AFF3 / Fold change vs veh, AFF3 / RFU, LMF1 / Fold change vs veh, LMF1 / RFU, IPO11 / Fold change vs veh, IPO11 / RFU, DFFB / Fold change vs veh, DFFB / RFU, FOXP1 / Fold change vs veh, FOXP1 / RFU, CARD8 / Fold change vs veh, CARD8 / RFU, STRN3 / Fold change vs veh, STRN3 / RFU, ADK / Fold change vs veh, ADK / RFU, RASSF2 / Fold change vs veh, RASSF2 / RFU, WIPF1 / Fold change vs veh, WIPF1 / RFU, LARP1B / Fold change vs veh, LARP1B / RFU, RASA1 / Fold change vs veh, RASA1 / RFU, RB1 / Fold change vs veh, RB1 / RFU, PPFIA1 / Fold change vs veh, PPFIA1 / RFU, MAT2A / Fold change vs veh, MAT2A / RFU, CCT5 / Fold change vs veh, CCT5 / RFU, WDR92 / Fold change vs veh, WDR92 / RFU, CUX1 / Fold change vs veh, CUX1 / RFU, TTC7A / Fold change vs veh, TTC7A / RFU, TMEM135 / Fold change vs veh, TMEM135 / RFU, DEPTOR / Fold change vs veh, DEPTOR / RFU, CPM / Fold change vs veh, CPM / RFU, DNAJB6 / Fold change vs veh, DNAJB6 / RFU, CACNA2D3 / Fold change vs veh, CACNA2D3 / RFU, DTX4 / Fold change vs veh, DTX4 / RFU, TFCP2 / Fold change vs veh, TFCP2 / RFU, GMCL1 /// GMCL1P1 / Fold change vs veh, GMCL1 /// GMCL1P1 / RFU, AEBP2 / Fold change vs veh, AEBP2 / RFU, SNHG1 /// SNORD22 /// SNORD25 /// SNORD26 /// SNORD27 /// SNORD28 /// SNORD29 /// SNORD31 / Fold change vs veh, SNHG1 /// SNORD22 /// SNORD25 /// SNORD26 /// SNORD27 /// SNORD28 /// SNORD29 /// SNORD31 / Fold change (Aza/veh), C12orf56 (ProbeSet 11735607_a_at) / Fold change (ACY-1035/veh), C12orf56 (ProbeSet 11735607_a_at) / Fold change (Aza/veh), FGFR1OP (ProbeSet 11751329_s_at) / Fold change (ACY-1035/veh), FGFR1OP (ProbeSet 11751329_s_at) / Fold change (Aza/veh), VPS36 (ProbeSet 11739960_a_at) / Fold change (ACY-1035/veh), VPS36 (ProbeSet 11739960_a_at) / RFU SYPL1 (11715823_x_at) / Fold change /veh SYPL1 (11715823_x_at) / RFU IGFBP7 (11715501_s_at) / Fold change /veh IGFBP7 (11715501_s_at) / RFU REEP3 (11722064_at) / Fold change /veh REEP3 (11722064_at) / RFU IGLL1 (11728026_x_at) / Fold change /veh IGLL1 (11728026_x_at): dose or concentration left out as unconfirmed
Settings: ProbeSet 11724763_s_at; LIST D

Nc1ccc(-c2cccs2)cc1NC(=O)c1ccc2c(c1)cc(C1CC1)n2CCN1CCOCC1 [ACY-1035]
RFU, DEPTOR: 104.61 RFU
